From patent US10987359B2, “Oxadiazepinone derivatives and methods of treating hepatitis B infections” (priority 2016, dated 2021)

What follows are molecules tested on HBV (assay: HBV replication inhibition assay (BDNA assay) in HepG2.2.15 cells). Conditions: HBV replication assay (BDNA assay), HepG2.2.15 cells; read-out: DNA EC50.
Format: cell-based
Outline: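 HepG2.2.15 cells with stably integrated HBV were treated with serially diluted compounds at 0.5% DMSO for 6 days, with medium and compound refreshed at day 3. Encapsidated HBV DNA from DNase-treated supernatant was quantified by branched DNA assay. EC50 came from % inhibition versus DMSO, fitted non-linearly.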

Question: How did the EC50 turn out when `CNC(=O)C1Cn2nc3c(c2C(=O)N(C)O1)CN(C(=O)Nc1cc(Cl)c(F)cc1F)[C@H](C)C3` (stereo in doubt) [Compound 111_D2, (4R*,9R)—N10-(5-chloro-2,4-difluorophenyl)-N4,2,9-trimethyl-1-oxo-1,4,5,8,9,11-hexahydropyrido[4′,3′:3,4]pyrazolo[5,1-d][1,2,5]oxadiazepine-4,10(2H)-dicarboxamide] was run?
Answer: 1 to 100 nM

Question: With `CNC(=O)C1Cn2nc3c(c2C(=O)N(C)O1)CN(C(=O)Nc1ccc(F)c(C#N)c1)[C@H](C)C3` (stereo in doubt) [Compound 112_D1, (4S*,9R)—N10-(3-cyano-4-fluorophenyl)-N4,2,9-trimethyl-1-oxo-1,4,5,8,9,11-hexahydropyrido[4′,3′:3,4]pyrazolo[5,1-d][1,2,5]oxadiazepine-4,10(2H)-dicarboxamide] as the molecule, how does the EC50 read?
Answer: > 1000 nM

Question: `CNC(=O)C1Cn2nc3c(c2C(=O)N(C)O1)CN(C(=O)Nc1ccc(F)c(C#N)c1)[C@H](C)C3` (stereo in doubt) [Compound 112_D2, (4R*,9R)—N10-(3-cyano-4-fluorophenyl)-N4,2,9-trimethyl-1-oxo-1,4,5,8,9,11-hexahydropyrido[4′,3′:3,4]pyrazolo[5,1-d][1,2,5]oxadiazepine-4,10(2H)-dicarboxamide] was tested. Which EC50 did it give?
Answer: 1 to 100 nM

Question: With `C[C@@H]1Cc2nn3c(c2CN1C(=O)Nc1ccc(F)c(C(F)(F)F)c1)C(=O)N(C)OC(CN)C3` (stereo in doubt) [Compound 116_D2, (4R*,9R)-4-(aminomethyl)-N-(4-fluoro-3-(trifluoromethyl)phenyl)-2,9-dimethyl-1-oxo-1,4,5,8,9,11-hexahydropyrido[4′,3′:3,4]pyrazolo[5,1-d][1,2,5]oxadiazepine-10(2H)-carboxamide] as the molecule, how does the EC50 read?
Answer: 1 to 100 nM

Question: `C[C@@H]1Cc2nn3c(c2CN1C(=O)Nc1ccc(F)c(Br)c1)C(=O)N(C)OC(CN)C3` (stereo in doubt) [Compound 117_D2, (4R*,9R)-4-(aminomethyl)-N-(3-bromo-4-fluorophenyl)-2,9-dimethyl-1-oxo-1,4,5,8,9,11-hexahydropyrido[4′,3′:3,4]pyrazolo[5,1-d][1,2,5]oxadiazepine-10(2H)-carboxamide] was tested. Which EC50 did it give?
Answer: 1 to 100 nM

Question: `C[C@@H]1Cc2nn3c(c2CN1C(=O)Nc1ccc(F)c(Br)c1)C(=O)N(C)OC(COCC(F)F)C3` (stereo in doubt) [Compound 122_D2, (4R*,9R)—N-(3-bromo-4-fluorophenyl)-4-((2,2-difluoroethoxy)methyl)-2,9-dimethyl-1-oxo-1,4,5,8,9,11-hexahydropyrido[4′,3′:3,4]pyrazolo[5,1-d][1,2,5]oxadiazepine-10(2H)-carboxamide] was tested. Which EC50 did it give?
Answer: 1 to 100 nM

Question: With `C[C@@H]1Cc2nn3c(c2CN1C(=O)Nc1ccnc(Br)c1F)C(=O)N(C)OC(COCC(F)F)C3` (stereo in doubt) [Compound 123_D1, (4S*,9R)—N-(2-bromo-3-fluoropyridin-4-yl)-4-((2,2-difluoroethoxy)methyl)-2,9-dimethyl-1-oxo-1,4,5,8,9,11-hexahydropyrido[4′,3′:3,4]pyrazolo[5,1-d][1,2,5]oxadiazepine-10(2H)-carboxamide] as the molecule, how does the EC50 read?
Answer: 100 to 500 nM

Question: `C[C@@H]1Cc2nn3c(c2CN1C(=O)Nc1ccnc(Br)c1F)C(=O)N(C)OC(COCC(F)F)C3` (stereo in doubt) [Compound 123_D2, (4R*,9R)—N-(2-bromo-3-fluoropyridin-4-yl)-4-((2,2-difluoroethoxy)methyl)-2,9-dimethyl-1-oxo-1,4,5,8,9,11-hexahydropyrido[4′,3′:3,4]pyrazolo[5,1-d][1,2,5]oxadiazepine-10(2H)-carboxamide] was tested. Which EC50 did it give?
Answer: 1 to 100 nM

Question: Which EC50 does the source give for `C[C@@H]1Cc2nn3c(c2CN1C(=O)Nc1ccc(F)c(C#N)c1)C(=O)N(C)OC(COCC(F)F)C3` (stereo in doubt) [Compound 124_D2, (4R*,9R)—N-(3-cyano-4-fluorophenyl)-4-((2,2-difluoroethoxy)methyl)-2,9-dimethyl-1-oxo-1,4,5,8,9,11-hexahydropyrido[4′,3′:3,4]pyrazolo[5,1-d][1,2,5]oxadiazepine-10(2H)-carboxamide] here?
Answer: 1 to 100 nM

Question: Which EC50 does the source give for `Cc1cc(NC(=O)N2Cc3c(nn4c3C(=O)N(C)OC(COCC(F)F)C4)C[C@H]2C)ccc1F` (stereo in doubt) [Compound 125_D2, (4R*,9R)-4-((2,2-difluoroethoxy)methyl)-N-(4-fluoro-3-methylphenyl)-2,9-dimethyl-1-oxo-1,4,5,8,9,11-hexahydropyrido[4′,3′:3,4]pyrazolo[5,1-d][1,2,5]oxadiazepine-10(2H)-carboxamide] here?
Answer: 1 to 100 nM

Question: `C[C@@H]1Cc2nn3c(c2CN1C(=O)Nc1ccc(F)c(C(F)(F)F)c1)C(=O)N(C)OC(COCC(F)F)C3` (stereo in doubt) [Compound 126_D1, (4S*,9R)-4-((2,2-difluoroethoxy)methyl)-N-(4-fluoro-3-(trifluoromethyl)phenyl)-2,9-dimethyl-1-oxo-1,4,5,8,9,11-hexahydropyrido[4′,3′:3,4]pyrazolo[5,1-d][1,2,5]oxadiazepine-10(2H)-carboxamide] was tested. Which EC50 did it give?
Answer: 100 to 500 nM

Question: `C[C@@H]1Cc2nn3c(c2CN1C(=O)Nc1ccc(F)c(C(F)(F)F)c1)C(=O)N(C)OC(COCC(F)F)C3` (stereo in doubt) [Compound 126_D2, (4R*,9R)-4-((2,2-difluoroethoxy)methyl)-N-(4-fluoro-3-(trifluoromethyl)phenyl)-2,9-dimethyl-1-oxo-1,4,5,8,9,11-hexahydropyrido[4′,3′:3,4]pyrazolo[5,1-d][1,2,5]oxadiazepine-10(2H)-carboxamide] was tested. Which EC50 did it give?
Answer: 1 to 100 nM

Question: Which EC50 does the source give for `C[C@@H]1Cc2nn3c(c2CN1C(=O)Nc1ccc(F)c(C#N)c1F)C(=O)N(C)OC(C(=O)N(C)CC(F)F)C3` (stereo in doubt) [Compound 153_D1, (4S*,9R)—N10-(3-cyano-2,4-difluorophenyl)-N4-(2,2-difluoroethyl)-N4,2,9-trimethyl-1-oxo-1,4,5,8,9,11-hexahydropyrido[4′,3′:3,4]pyrazolo[5,1-d][1,2,5]oxadiazepine-4,10(2H)-dicarboxamide] here?
Answer: 100 to 500 nM

Same assay, conditions: Hepatitis B virus, HepG2.2.15, HBV replication assay (BDNA assay), HepG2.2.15 cells; read-out: DNA EC50

Question: For `CN1O[C@H](CN)Cn2nc3c(c2C1=O)CN(C(=O)Nc1ccc(F)c(C#N)c1)CC3` (stereo in doubt) [Compound 114_E1, (S*)-4-(aminomethyl)-N-(3-cyano-4-fluoro-phenyl)-2-methyl-1-oxo-5,8,9,11-tetrahydro-4H-pyrido[2,3]pyrazolo[2,4-d][1,2,5]oxadiazepine-10-carboxamide], which EC50 is on record?
Answer: 1 to 100 nM

Question: With `C[C@@H]1Cc2nn3c(c2CN1C(=O)Nc1ccc(F)c(C(F)(F)F)c1)C(=O)N(C)OC(CN)C3` (stereo in doubt) [Compound 116_D1, (4S*,9R)-4-(aminomethyl)-N-(4-fluoro-3-(trifluoromethyl)phenyl)-2,9-dimethyl-1-oxo-1,4,5,8,9,11-hexahydropyrido[4′,3′:3,4]pyrazolo[5,1-d][1,2,5]oxadiazepine-10(2H)-carboxamide] as the molecule, how does the EC50 read?
Answer: 1 to 100 nM

Question: `C[C@@H]1Cc2nn3c(c2CN1C(=O)Nc1ccc(F)c(Br)c1)C(=O)N(C)OC(CN)C3` (stereo in doubt) [Compound 117_D1, (4S*,9R)-4-(aminomethyl)-N-(3-bromo-4-fluorophenyl)-2,9-dimethyl-1-oxo-1,4,5,8,9,11-hexahydropyrido[4′,3′:3,4]pyrazolo[5,1-d][1,2,5]oxadiazepine-10(2H)-carboxamide] was tested. Which EC50 did it give?
Answer: 1 to 100 nM

Question: With `C[C@@H]1Cc2nn3c(c2CN1C(=O)Nc1ccc(F)c(Cl)c1)C(=O)N(C)OC(COCC(F)F)C3` (stereo in doubt) [Compound 121_D2, (4R*,9R)—N-(3-chloro-4-fluorophenyl)-4-((2,2-difluoroethoxy)methyl)-2,9-dimethyl-1-oxo-1,4,5,8,9,11-hexahydropyrido[4′,3′:3,4]pyrazolo[5,1-d][1,2,5]oxadiazepine-10(2H)-carboxamide] as the molecule, how does the EC50 read?
Answer: 1 to 100 nM

Question: With `C[C@@H]1Cc2nn3c(c2CN1C(=O)Nc1ccc(F)c(Br)c1)C(=O)N(C)OC(COCC(F)F)C3` (stereo in doubt) [Compound 122_D1, (4S*,9R)—N-(3-bromo-4-fluorophenyl)-4-((2,2-difluoroethoxy)methyl)-2,9-dimethyl-1-oxo-1,4,5,8,9,11-hexahydropyrido[4′,3′:3,4]pyrazolo[5,1-d][1,2,5]oxadiazepine-10(2H)-carboxamide] as the molecule, how does the EC50 read?
Answer: 1 to 100 nM

Question: With `C[C@@H]1Cc2nn3c(c2CN1C(=O)Nc1ccc(F)c(C#N)c1)C(=O)N(C)OC(COCC(F)F)C3` (stereo in doubt) [Compound 124_D1, (4S*,9R)—N-(3-cyano-4-fluorophenyl)-4-((2,2-difluoroethoxy)methyl)-2,9-dimethyl-1-oxo-1,4,5,8,9,11-hexahydropyrido[4′,3′:3,4]pyrazolo[5,1-d][1,2,5]oxadiazepine-10(2H)-carboxamide] as the molecule, how does the EC50 read?
Answer: 1 to 100 nM

Question: For `Cc1cc(NC(=O)N2Cc3c(nn4c3C(=O)N(C)OC(COCC(F)F)C4)C[C@H]2C)ccc1F` (stereo in doubt) [Compound 125_D1, (4S*,9R)-4-((2,2-difluoroethoxy)methyl)-N-(4-fluoro-3-methylphenyl)-2,9-dimethyl-1-oxo-1,4,5,8,9,11-hexahydropyrido[4′,3′:3,4]pyrazolo[5,1-d][1,2,5]oxadiazepine-10(2H)-carboxamide], which EC50 is on record?
Answer: 1 to 100 nM

Question: `C[C@@H]1Cc2nn3c(c2CN1C(=O)Nc1cc(Cl)c(F)cc1F)C(=O)N(C)OC(COCC(F)F)C3` (stereo in doubt) [Compound 127_D2, (4R*,9R)—N-(5-chloro-2,4-difluorophenyl)-4-((2,2-difluoroethoxy)methyl)-2,9-dimethyl-1-oxo-1,4,5,8,9,11-hexahydropyrido[4′,3′:3,4]pyrazolo[5,1-d][1,2,5]oxadiazepine-10(2H)-carboxamide] was tested. Which EC50 did it give?
Answer: 1 to 100 nM

Question: With `C[C@@H]1Cc2nn3c(c2CN1C(=O)Nc1ccc(F)c(Cl)c1F)C(=O)N(C)OC(C(=O)N(C)CC(F)F)C3` (stereo in doubt) [Compound 152_D2, (4R*,9R)—N10-(3-chloro-2,4-difluorophenyl)-N4-(2,2-difluoroethyl)-N4,2,9-trimethyl-1-oxo-1,4,5,8,9,11-hexahydropyrido[4′,3′:3,4]pyrazolo[5,1-d][1,2,5]oxadiazepine-4,10(2H)-dicarboxamide] as the molecule, how does the EC50 read?
Answer: 1 to 100 nM
